In publication PMC11571012, “Synthesis and Preclinical Evaluation of a Bispecific PSMA-617/RM2 Heterodimer Targeting Prostate Cancer” (ACS Medicinal Chemistry Letters, 2024):
Where two headings read alike, the source gives them in different places.

How the values were obtained:
PC-3 tumors = settings: in vivo; cited from earlier work
[1] = target: T1, PSMA receptor in LNCaP cells (PSMA+, GRPR-) (Homo sapiens, UniProt Q04609); settings: standard used at C = 0.75 nM; no reference given; read-out: IC50 of standard radioligand (PSMA); cited from earlier work
T1 construct: Briefly, LNCaP 10 5 cells per well; host or cells: LNCaP cells
T1 sequence (Q04609 whole entry): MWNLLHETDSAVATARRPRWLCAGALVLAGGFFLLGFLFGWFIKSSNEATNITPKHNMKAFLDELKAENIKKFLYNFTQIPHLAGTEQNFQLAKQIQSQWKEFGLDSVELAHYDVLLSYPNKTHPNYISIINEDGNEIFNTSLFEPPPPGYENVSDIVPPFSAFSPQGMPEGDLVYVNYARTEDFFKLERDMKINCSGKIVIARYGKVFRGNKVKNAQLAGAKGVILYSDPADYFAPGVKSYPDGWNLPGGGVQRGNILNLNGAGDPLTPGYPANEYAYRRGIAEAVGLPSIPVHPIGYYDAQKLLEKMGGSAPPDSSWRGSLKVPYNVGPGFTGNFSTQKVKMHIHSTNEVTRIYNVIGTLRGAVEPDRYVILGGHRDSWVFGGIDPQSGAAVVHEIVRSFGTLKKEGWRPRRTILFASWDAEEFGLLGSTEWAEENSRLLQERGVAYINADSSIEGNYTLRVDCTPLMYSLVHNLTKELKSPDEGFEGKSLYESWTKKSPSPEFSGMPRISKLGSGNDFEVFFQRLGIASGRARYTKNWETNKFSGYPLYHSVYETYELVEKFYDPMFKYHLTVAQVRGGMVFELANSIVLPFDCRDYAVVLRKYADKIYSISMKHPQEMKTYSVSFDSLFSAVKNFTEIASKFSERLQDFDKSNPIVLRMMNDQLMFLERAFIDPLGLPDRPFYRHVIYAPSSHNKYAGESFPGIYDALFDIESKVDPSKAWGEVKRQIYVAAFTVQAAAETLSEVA

[2] = target: T1, PSMA receptor in LNCaP cells (PSMA+, GRPR-); assay: Cell-based competitive binding assay in LNCaP cells against [68Ga]Ga-PSMA-10; settings: 10^5 cells/well, against [68Ga]Ga-PSMA-10 0.75 nM, analyte 0–5000 nM, 45 min, gamma counter, quadruplicate
Experimental: Each value was measured in quadruplicate.
Cell Culture & cell assays
In vitro and in vivo experiments were performed with the following cell lines: the GRPR positive PC -3 cells
supplemented with 10% fetal calf serum and 2 mM L -glutamine (Invitrogen, Carlsbad, CA, USA). Cells
were grown at 37 °C in humidified air with 5% CO 2. Trypsin-ethylenediaminetetraacetic acid (trypsin -
EDTA; 0.25% tryps in, 0.02% EDTA, Invitrogen) was used for cell harvesting.
Determination of Binding Affinity in LNCaP and PC -3 cells
3-5 Briefly, LNCaP 10 5 cells per well
PSMA-10, precursor purchased from ABX, Radeberg , Germany) and an ascending series of 12 different
45 min). This mixture was removed after incubation and the wells were washed on a multiscreen vacuum
manifold (Millipore, Billerica, MA) three times with PBS. The following detection of cell-bound
radioactivity was measured using a gamma counter (Packard Cobra II, GMI, Minnesota, USA).
fitted with a nonlinear regression algorithm (GraphPad Software) to determine the 50% inhibitory
concentration (IC50) values.
min. After incubation the mixture was removed, the wells were washed with PBS and the cell -bound
radioactivity was measured using a gamma counter (Hidex AMG - Automated Gamma Counter).

PSMA (LNCaP, PC-3 PIP) = settings: read-out: Ki, LNCaP (literature), LNCaP cells, literature data, ref 2 (SI); cited from earlier work
Experimental: This mixture was removed after incubation and the wells were washed on a multiscreen vacuum manifold (Millipore, Billerica, MA) three times with PBS. The following detection of cell-bound radioactivity was measured using a gamma counter (Packard Cobra II, GMI, Minnesota, USA).

[3] = Radio RP-HPLC analysis (elution order); settings: radiolabeled ligands; Chromolith RP-18e, 0−100% AcCN (0.1% TFA) in 6 min, 4 mL/min; said to agree with logD

## CC(C)C[C@H](NC(=O)C[C@H](O)[C@H](CC(C)C)NC(=O)[C@H](Cc1c[nH]cn1)NC(=O)CNC(=O)[C@@H](NC(=O)[C@H](C)NC(=O)[C@H](Cc1c[nH]c2ccccc12)NC(=O)[C@H](CCC(N)=O)NC(=O)[C@@H](Cc1ccccc1)NC(=O)CN1CCC(NC(=O)CN2CCN(CC(=O)O)CCN(CC(=O)O)CCN(CC(=O)O)CC2)CC1)C(C)C)C(N)=O [[68Ga]Ga-RM2] [metal not drawn]
PC-3 tumors
  Kidneys uptake: 3.34 ± 0.54 % ID/g

## [Glu-urea-Lys(Ahx)]2-HBED-CC [[^68Ga]Ga-PSMA-10]
[1]
  IC50: 3.8 ± 1.8 nM

## O=C(O)CC[C@H](NC(=O)N[C@@H](CCCCNC(=O)[C@H](Cc1ccc2ccccc2c1)NC(=O)[C@H]1CC[C@H](CNC(=O)CN2CCN(CC(=O)O)CCN(CC(=O)O)CCN(CC(=O)O)CC2)CC1)C(=O)O)C(=O)O [PSMA-617 (1), vipivotide tetraxetan]
[2]
  IC50: 6.41 nM
PSMA (LNCaP, PC-3 PIP)
  Ki: 2.34 nM
[3]
  Elution order in radio RP-HPLC: eluted first
